Measured values published in US7537887B2, “Net, a transcription factor of the TCF family, as regulator of angiogenic factor expression” (Aventis Pharma S.A., priority 2000, dated 2009).

Key:
[1] = target: NES binding to CRM1 (Homo sapiens, UniProt O14980); conditions: cited from earlier work
[2] = test system: Net; conditions: inhibitor 10 μM for 30 min; FIG. 3 lanes 3, 4
Description: (§1) NIH3T3 cells were transfected as described above with the control vector for GPCR (pCEFL) or the vector for GPCR (Line 2). 14 hours later, cells were washed and left in the growth medium for 2.5 hours. The cells were then treated with SB 203580 (10 μM) (Alexis Corp.) or U0126 (10 μM) (Promega) for 30 min. After 6 hours, extracts were analysed by SDS-PAGE and Western-blotting with antibodies against phospho-serine 365 Net (antibody 2F3, Ducret et al. (Oncogene, in press) or activated ERK (Promega).
Phosphorylation of endogenous Net was followed with a phospho-specific antibody that recognises phospho-serine 365, which is important for phosphorylation induced activation of Net by ERK and p38 signalling cascades.
as §1, with “(pCEFL-GPCR).” for “(Line 2).”, “[Antibody 2F3 , Giovane” for “(antibody 2F3, Ducret”, “(Genomics (1995) 29:769-72)]” for “(Oncogene, in press)”

[3] = test system: ERK; test: ERK activation in GPCR-transfected NIH3T3 cells (Western blot, activated ERK antibody); type: cell-based; conditions: 10 μM; FIG. 3
From the text: FIG. 3: Phosphorylation of endogenous Net.

[4] = test system: HUVEC cells; test: Microtubule formation by HUVEC cells on Matrigel induced by conditioned media from transfected NIH3T3 cells; type: cell-based; conditions: 10 ng/ml recombinant human VEGF added to conditioned medium; FIG. 1d, 1f
Description: FIG. 1: Microtubule formation by HUVEC cells on Matrigel induced by conditioned media from differentially transfected NIH3T3 cells. NIH3T3 cells were transfected by pCEFL-GPCR alone (FIG. 1a); pCEFL-GPCR with p601D-antisense-Net (FIG. 1c) or p601D-transdominant-Net (FIG. e). Before incubation with HUVEC cells, some of the conditioned media were incubated with either: (b) 0.2 μg/ml of anti-mouse-VEGF polyclonal antibody (total goat IgG; R&D SYSTEMS) or with (d and f) 10 ng/ml of recombinant human VEGF-A (R&D). The plates were observed after 24 hours (phase contrast, original magnification, ×40).
a. NIH3T3 cells (C11) were transfected by the calcium phosphate technique with pCEFL-KSHVGPCR (mouse EF12 promoter) and the AntiNet expression vector or the corresponding empty vector (p601D: Beddinton et al.1989,Development 106:37-46). 16 hours after applying the precipitate, the cells were washed twice with DMEM, incubated in DMEM with 0,05% FCS for 48 hours. The medium was collected and either tested immediately or stored at −80° C.
b. HUVEC cells (passage 4-6) were grown in DMEM/F12K containing 10% FCS, Heparine (50 ng/mnl), ECGF(Endothelial Cell Growth Factor, Sigma, 50 ng/ml) and Glutamine (2 mM).
c. The wells of 24-multiwell plates were coated with […] of Growth Factor Reduced MATRIGEL Matrix (Collaborative Biomedical Products) at 4° C. and incubated for 30 min at 37° C.
d. […]

NES binding to CRM1, sequence (O14980 whole entry): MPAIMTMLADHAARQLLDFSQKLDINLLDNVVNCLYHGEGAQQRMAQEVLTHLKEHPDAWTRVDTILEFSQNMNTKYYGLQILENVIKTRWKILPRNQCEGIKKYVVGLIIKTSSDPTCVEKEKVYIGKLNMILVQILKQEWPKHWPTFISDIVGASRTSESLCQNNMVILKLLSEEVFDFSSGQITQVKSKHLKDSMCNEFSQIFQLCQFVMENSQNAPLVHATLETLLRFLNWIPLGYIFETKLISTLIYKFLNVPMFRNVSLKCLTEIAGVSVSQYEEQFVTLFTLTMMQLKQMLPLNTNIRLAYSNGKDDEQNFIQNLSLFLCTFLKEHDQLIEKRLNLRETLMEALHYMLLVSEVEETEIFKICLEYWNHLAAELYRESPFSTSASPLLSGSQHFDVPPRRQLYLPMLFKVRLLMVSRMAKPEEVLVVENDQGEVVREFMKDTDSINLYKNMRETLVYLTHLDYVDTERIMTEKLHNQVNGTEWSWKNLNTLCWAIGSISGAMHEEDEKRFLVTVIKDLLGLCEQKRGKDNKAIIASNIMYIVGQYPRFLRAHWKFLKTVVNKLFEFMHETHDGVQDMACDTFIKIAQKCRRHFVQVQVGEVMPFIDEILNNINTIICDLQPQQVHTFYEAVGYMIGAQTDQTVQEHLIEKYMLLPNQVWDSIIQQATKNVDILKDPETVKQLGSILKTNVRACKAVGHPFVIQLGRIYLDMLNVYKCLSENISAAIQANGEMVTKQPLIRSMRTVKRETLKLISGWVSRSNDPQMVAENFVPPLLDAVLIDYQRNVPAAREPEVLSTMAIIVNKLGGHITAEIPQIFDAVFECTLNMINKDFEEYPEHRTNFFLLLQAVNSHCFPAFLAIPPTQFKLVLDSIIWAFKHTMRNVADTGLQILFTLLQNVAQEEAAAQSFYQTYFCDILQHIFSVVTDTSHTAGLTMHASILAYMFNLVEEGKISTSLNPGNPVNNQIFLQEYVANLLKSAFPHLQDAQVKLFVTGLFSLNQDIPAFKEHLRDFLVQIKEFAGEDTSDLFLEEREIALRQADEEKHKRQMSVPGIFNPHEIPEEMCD

Molecule: CCC(=C/[C@H](C)C/C=C/C(C)=C/[C@@H](C)C(=O)[C@@H](C)[C@H](O)[C@@H](C)C/C(C)=C/C(=O)O)/C=C/[C@@H]1OC(=O)C=C[C@@H]1C [leptomycin B]
- active nuclear export of the Net protein induced by the JNK pathway [1]: inhibited

Molecule: N#CC(=C(N)Sc1ccccc1N)C(C#N)=C(N)Sc1ccccc1N [U 0126, 1,4-diamino-2,3-dicyano-1,4 bis[2-aminophenylthio]butadiene]
- GPCR induced phosphorylation of Net (phospho-serine 365) [2]: induction was dependent on both the p38 and ERK pathways

Molecule: C[S+]([O-])c1ccc(-c2nc(-c3ccncc3)c(-c3ccc(F)cc3)[nH]2)cc1 (centres unmarked) [SB 203580, 4-[5-(4-fluorophenyl)4-4-(pyridinyl)-1H-imidazol-2-yl]phenyl methyl sulfoxide]
- GPCR induced phosphorylation of Net (phospho-serine 365) [2]: induction was dependent on both the p38 and ERK pathways
- ERK activation [3]: did not inhibit ERK activation

B1: VEGFa: recombinant human VEGF-A (R&D) (protein)
chain: APTTEGEQKSHEVIKFMDVYQRSYCRPIETLVDIFQEYPDEIEYIFKPSCVPLMRCAGCCNDEALECVPTSESNITMQIMRIKPHQSQHIGEMSFLQHSRCECRPKKDRTKPENHCEPCSERRKHLFVQDPQTCKCSCKNTDSRCKARQLELNERTCRCDKPRR
- microtubule inducing activity of conditioned medium from Net down-regulated GPCR cells after adding VEGFa [4]: restored microtubule inducing activity
